Test results as given in US11484608B2, “Non-invasive assessment of hepatic mitochondrial metabolism by positional isotopomer NMR tracer analysis (PINTA)” (YALE UNIVERSITY, priority 2017, dated 2022).
Values belong to the compound of their own block, whether it stands above or below them.

What was measured:
[1] = tested on: primary mouse hepatocytes; assay: In vitro glucose production, VPC and lipolysis in isolated hepatocytes; assay type: cell-based; settings: for glucagon-stimulated VPC flux / glucagon-stimulated glucose production: WT hepatocytes, 100 nM glucagon, 8 hr
Experimental: For in vitro glucose production and lipolysis studies, primary mouse hepatocytes were isolated by the Yale Liver Center. Following removal of cell debris by Percoll density gradient centrifugation, cells were plated on 6-well collagen-I coated dishes (4.0×10^5 cells/well) in 2 ml recovery media (DMEM High Glucose containing 10% FBS, 2% penicillin-streptomycin, 100 nM dexamethasone, 1 nM insulin, and 10 mM HEPES). After incubation for 6 hr at 37° C. and 5% CO2, the attached cells were washed once in 1×PBS and then incubated overnight in 2 ml Low Glucose Culture Media (DMEM Low Glucose supplemented with 10% FBS, 2% penicillin-streptomycin and 10 mM HEPES for glucose production studies) or Serum Free Low Glucose Culture Media (DMEM Low Glucose supplemented with 0.5% fatty acid free BSA, 2% penicillin-streptomycin and 10 mM HEPES for lipolysis assays). […] After incubation for 8 hr at 37° C. and 5% CO2, cell culture media was collected for analysis of glucose, NEFA, and glycerol concentrations as described above. VPC was determined by measuring VPC/VEGP by PINTA as described above using 300 μL of the collected media, and multiplying this ratio by the measured glucose production rate. In a subset of studies, cells were incubated for 8 hr during the glucose production assay in media containing one of the following agents (all dissolved in 0.5% DMSO), or 0.5% DMSO vehicle: 20 μM ET-18-OCH3 (Santa Cruz), 100 μM U-73122 (Sigma), 30 nM thapsigargin (Sigma), 100 nM vasopressin (Sigma) 50 μM 2-APB (R&D Systems), 70 μM caffeine (Sigma), 1 mM malic enzyme inhibitor hydroxymalonate (Sigma). To inhibit PKA, hepatocytes were incubated in H-89 […] hydrate (Sigma, 25 μM) dissolved in media, or media lacking H-89 as a control. In the insulin treatment studies, hepatocytes were incubated in 1 nM insulin with 5% BSA and glucose production media for the duration of the glucose production assay. In the in vitro atglistatin study, hepatocytes were incubated in 10 μM atglistatin in 0.1% EtOH, or 0.1% EtOH vehicle. All values were normalized to total protein content determined from whole-cell lysates by a BCA protein assay (Thermo Fisher Scientific) according to the manufacturer's instructions and expressed as fold change verses vehicle-treated cells.

[2] = tested on: primary hepatocytes (cytosolic and mitochondrial calcium); assay: Ca2+ imaging in isolated hepatocytes; assay type: cell-based, mouse
Experimental: Primary hepatocytes were isolated by the Yale Liver Center from wild-type and InsP3R-I KO mice and plated on glass coverslips coated with Rat Collagen Type I. Cells were loaded with the ratiometric cytosolic Ca^2+ indicator dye, Fura-2 AM (Thermo Fisher Scientific), or the mitochondrial matrix-targeted Ca^2+ indicator, Rhod-2 AM (Thermo Fisher Scientific) according to manufacturer's instructions. Ca^2+ imaging experiments were performed in 4-(2-hydroxyethyl)-1-piperazine ethanesulfonic acid (HEPES)-buffered balanced salt solution (25 mM HEPES, 121 mM NaCl, 4.7 mM KCl, 1.2 mM MgSO4, 1.2 mM KPO4, 5 mM NaHCO3, 2.0 mM CaCl2, 10 mM Glucose, pH 7.4) with or without the PKA inhibitor H-89 (25 μM) two to five hr following initial plating. Coverslips were transferred to a custom-built perfusion chamber on the stage of an inverted microscope connected to a RedShirtImaging camera (Olympus Life Science, Waltham, Mass.). […] For cytoplasmic calcium readings, changes in fluorescence (F, λ=340) were normalized by the initial fluorescence (F0, λ=380) and were expressed as F/F0. […] Individual cell responses were normalized to their respective baseline Rhod-2 AM fluorescence values, and changes were expressed as Normalized Δ Fluorescence.

[3] = tested on: hepatic gluconeogenesis and mitochondrial oxidation (VPC, VCS); assay: Alanine replacement in 48 hr fasted rats; assay type: in vivo, rat
Experimental: Hepatic fluxes (whole-body glucose turnover, VPC and VCS), liver TCA cycle intermediate concentrations, and plasma metabolites and hormones were measured as described below (Flux Measurements). […] Liver and muscle glycogen concentrations were assessed using amyloglucosidase digestion. Liver TAG content was measured using the method of Bligh and Dyer (Bligh and Dyer, Can. J. Biochem. Physiol. 37, 911-917, 1959): lipids were extracted from livers using 2:1 chloroform:methanol, and the Sekisui triglyceride-SL reagent was used to measure triglyceride content spectrophotometrically. Liver and muscle DAG content and liver acetyl- and malonyl-CoA concentrations were measured by LC-MS/MS as described by Yu and Perry (Yu, et al. J. Biol. Chem. 2002, 277, 50230-50236; Perry, et al., J. Clin. Invest. 2017, 127, 657-669). […] The samples were homogenized in […] ice-cold methanol using a TissueLyser and filtered through a Nanosep filter. LC-MS/MS (AbSCIEX 6500 QTRAP with a Shimadzu ultrafast liquid chromatography system, negative ion mode) was again used to monitor the relevant ion pairs: succinate and [^13C4]succinate, 117/99 and 121/103, respectively; malate and [^13C4]malate, 133/115 and 137/119, respectively; and citrate and [13C6]citrate, 191/173 and 197/179, respectively. […] Hepatic PKCε translocation, gluconeogenic enzyme protein expression, ApoB (antibody from Meridian Life Science, Memphis, Tenn.), and PGC1α (antibody from Santa Cruz Biotechnology, Dallas, Tex.) protein expression were assessed by western blot. Expression of each of these proteins was normalized to GAPDH.

[4] = molecular target: T1, ATGL (Rattus norvegicus, UniProt P0C548); assay: ATGL inhibitor atglistatin in 0, 6, 16 and 48 hr fasted rats; assay type: in vivo
T1 construct: from tissue; host or cells: live rat, in vivo (intraperitoneal dosing)
T1 sequence (P0C548 1-478): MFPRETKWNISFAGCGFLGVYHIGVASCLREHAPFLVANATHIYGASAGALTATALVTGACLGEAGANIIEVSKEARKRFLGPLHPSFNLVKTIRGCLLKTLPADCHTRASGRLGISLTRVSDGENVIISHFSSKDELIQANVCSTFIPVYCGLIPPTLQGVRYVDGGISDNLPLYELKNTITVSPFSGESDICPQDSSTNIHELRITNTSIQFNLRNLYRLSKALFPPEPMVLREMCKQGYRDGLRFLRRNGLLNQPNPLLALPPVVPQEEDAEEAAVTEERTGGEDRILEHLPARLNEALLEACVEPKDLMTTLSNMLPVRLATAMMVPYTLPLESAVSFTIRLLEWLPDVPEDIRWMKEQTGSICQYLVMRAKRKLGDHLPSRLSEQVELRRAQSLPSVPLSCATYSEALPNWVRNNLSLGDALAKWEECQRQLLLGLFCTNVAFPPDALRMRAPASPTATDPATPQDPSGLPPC
Experimental: Liver and muscle glycogen concentrations were assessed using amyloglucosidase digestion. Liver TAG content was measured using the method of Bligh and Dyer (Bligh and Dyer, Can. J. Biochem. Physiol. 37, 911-917, 1959): lipids were extracted from livers using 2:1 chloroform:methanol, and the Sekisui triglyceride-SL reagent was used to measure triglyceride content spectrophotometrically. Liver and muscle DAG content and liver acetyl- and malonyl-CoA concentrations were measured by LC-MS/MS as described by Yu and Perry (Yu, et al. J. Biol. Chem. 2002, 277, 50230-50236; Perry, et al., J. Clin. Invest. 2017, 127, 657-669). […] The samples were homogenized in […] ice-cold methanol using a TissueLyser and filtered through a Nanosep filter. LC-MS/MS (AbSCIEX 6500 QTRAP with a Shimadzu ultrafast liquid chromatography system, negative ion mode) was again used to monitor the relevant ion pairs: succinate and [^13C4]succinate, 117/99 and 121/103, respectively; malate and [^13C4]malate, 133/115 and 137/119, respectively; and citrate and [13C6]citrate, 191/173 and 197/179, respectively. […] Hepatic PKCε translocation, gluconeogenic enzyme protein expression, ApoB (antibody from Meridian Life Science, Memphis, Tenn.), and PGC1α (antibody from Santa Cruz Biotechnology, Dallas, Tex.) protein expression were assessed by western blot. Expression of each of these proteins was normalized to GAPDH.

[5] = molecular target: glucocorticoid receptor (Rattus norvegicus, UniProt P06536)
glucocorticoid receptor, sequence (P06536 whole entry, the tested form may be a part): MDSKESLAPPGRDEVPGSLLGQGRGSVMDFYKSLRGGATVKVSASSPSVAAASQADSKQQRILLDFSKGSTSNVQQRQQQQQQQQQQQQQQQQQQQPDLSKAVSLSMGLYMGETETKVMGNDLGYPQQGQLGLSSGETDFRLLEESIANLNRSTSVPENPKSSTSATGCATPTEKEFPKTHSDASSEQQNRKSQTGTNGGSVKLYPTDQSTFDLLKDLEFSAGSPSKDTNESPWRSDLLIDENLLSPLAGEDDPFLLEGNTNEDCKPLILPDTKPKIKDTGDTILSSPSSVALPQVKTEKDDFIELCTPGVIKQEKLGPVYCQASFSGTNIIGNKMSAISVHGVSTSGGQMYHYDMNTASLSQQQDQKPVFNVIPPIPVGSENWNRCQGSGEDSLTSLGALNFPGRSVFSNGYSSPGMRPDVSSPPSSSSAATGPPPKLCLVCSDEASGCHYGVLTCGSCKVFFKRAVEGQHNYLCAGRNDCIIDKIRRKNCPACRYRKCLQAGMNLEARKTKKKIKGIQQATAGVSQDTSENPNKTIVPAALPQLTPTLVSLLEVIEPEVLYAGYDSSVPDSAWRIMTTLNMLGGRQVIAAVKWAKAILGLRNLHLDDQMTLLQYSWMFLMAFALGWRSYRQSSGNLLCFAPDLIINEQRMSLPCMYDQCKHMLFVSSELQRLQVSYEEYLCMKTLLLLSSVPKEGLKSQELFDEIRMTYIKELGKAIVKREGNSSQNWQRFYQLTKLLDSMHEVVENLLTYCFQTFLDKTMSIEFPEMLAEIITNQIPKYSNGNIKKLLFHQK
Experimental: 8, 16, and 48 hr fasted rats were injected with a small molecule inhibitor of glycogen phosphorylase, 1-(3-(3-(2-Chloro-4,5-difluorobenzoyl) ureido)-4-methoxyphenyl)-3-methylurea (Sigma #361515; 5 mg/kg IV) and a tracer infusion of [2,3,3,3-^2H4]alanine ([…]prime for 5 min and […] continuous) and [3-^3H]glucose (0.3 μCi/min prime for 5 min and 0.3 μCi/min continuous) as well as [^13C4] β-hydroxybutyrate, [1,1,2,3,3-^2H5]glycerol, and [^13C16]palmitate at the rates listed in Table 9, for 120 min. Blood samples were obtained before (time zero) and 120 min after treatment with the glycogen phosphorylase inhibitor for measurement of turnover rates and plasma hormone/substrate concentrations. Hepatic acetyl-CoA content was altered by treatment with a CPT-1 inhibitor (etomoxir, 8 mg/kg) or an ATGL inhibitor (atglistatin, […]) in 0, 6, 16, and 48 hr fasted rats. Both agents were solubilized by suspending the drug in 4% ethanol/96% normal saline, heating to 60° C., and sonicating, and were cooled to room temperature before they were injected intraperitoneally. […] In these animals plasma glucose concentrations were measured every 15 minutes and a variable infusion of 20% glucose (Pfizer Hospira, Lake Forest, Ill.) was used to maintain plasma glucose concentrations ˜3.6-3.7 mM. The physiologic role of glucocorticoids was assessed in 6 and 48 hr fasted rats by treatment with a glucocorticoid receptor antagonist, mifepristone. Following a 2 hr tracer infusion at the rates described above to assess fatty acid, glycerol, glucose, and β-hydroxybutyrate turnover, rats were injected with mifepristone (40 mg/kg) IV. The tracer infusion was continued and the tracer of each of the above substrates was again measured 2 hr after treatment with mifepristone.
All whole-body substrate turnover rates were calculated using the equation Turnover=([Tracer APE/Plasma APE]−1)*Infusion rate, where APE designates the atom percent enrichment measured by mass spectrometry as described below (Biochemical Analysis). All chemicals used for flux analysis were obtained from SIGMA. Turnover of glucose, glycerol, and β-hydroxybutyrate were determined by gas chromatography-mass spectrometry (GC-MS). Briefly, both glucose and glycerol were deprotonized with 5 volumes of methanol, derivitized with 3 volumes of 1:1 acetic anhydride:pyridine, heated to 65° C. for 20 min, and 1 volume of methanol was added, then GC-MS was used in CI mode to measure glucose enrichment and EI mode to measure glycerol enrichment, with turnover calculated using the equation above. β-Hydroxybutyrate was deprotonized with 5 volumes of methanol and derivitized with 3 volumes of n-butanol 4N HCl, after which the samples were heated to 65° C. for 60 min, evaporated under N2 gas, and re-suspended in […] of trifluoroacetic acid:methylene chloride (1:7). Fatty acid turnover was measured by determining the plasma palmitate enrichment by GC-MS. Samples were prepared for measurements of palmitate enrichment by evaporating […] plasma, dissolving in […] 1:1 chloroform:methanol and derivitizing with […] boron trifluoride/methanol, then heating to 100° C. for 5 min, adding 2 mL pentane and 1 mL water, and centrifuging at low speed for 5 min. […] Alanine turnover was determined in rats infused with [2,3,3,3-^2H4]alanine by preparing samples to measure alanine enrichment by GC/MS (CI mode) using the same protocol as was employed to measure β-hydroxybutyrate enrichment.

[6] = 48-hr fasted rats, 40 mg/kg IV, 2 hr
[7] = hepatocytes, 100 nM vasopressin

Compound: O=S(=O)(NCCNC/C=C/c1ccc(Br)cc1)c1cccc2cnccc12 [H-89, H-89 dichloroacetate hydrate]
- glucagon-stimulated VPC flux [1]: abrogated
- glucagon-stimulated glucose production [1]: abrogated
- effect of glucagon to stimulate intrahepatic lipolysis ([1]; isolated hepatocytes): abrogated
- calcium response to glucagon ([2]; WT hepatocytes, H-89 25 μM): abrogated

Compound: C[C@H](N)C(=O)O [alanine]
- plasma glucose, insulin, and lactate concentrations ([3]; alanine 45 mmol/(kg-min) 2 hr): increased
- endogenous glucose production ([3]; alanine infusion): increased
- increase in plasma leptin concentrations ([3]; alanine infusion): 3 fold
- liver tricarboxylic acid cycle intermediate concentrations ([3]; alanine infusion): increased
- plasma glucagon ([3]; alanine infusion): independent of any change
- pyruvate carboxylase flux (VPC) ([3]; alanine infusion): increased
- rates of hepatic mitochondrial oxidation (VCS) ([3]; alanine infusion): increased

- plasma corticosterone concentration ([4]; 16- and 48-hr fasted rats): increases
- plasma glucose concentrations ([4]; 16- and 48-hr fasted rats): decreased
- plasma leptin ([4]; 16- and 48-hr fasted rats): reductions
- hepatic acetyl-CoA content, hepatic gluconeogenesis, and plasma glucose and insulin concentrations ([4]; 16- to 48-hr fasted rats): suppressed
- WAT lipolysis ([4]; 48-hr fasted rats): suppression
- hepatic acetyl-CoA content ([4]; 48-hr fasted rats): suppression
- plasma lactate, epinephrine, and norepinephrine concentrations and hepatic malonyl-CoA content ([4]; fasted rats): unchanged
Compound: CN(C)C(=O)Nc1cccc(-c2ccc(N(C)C)cc2)c1 [atglistatin]
- glucagon-stimulated VPC flux [1]: no effect
- glucagon-stimulated glucose production [1]: no effect

- reduction in plasma leptin concentrations ([5]; 48-hr fasted rats): 60%
- WAT lipolysis [5, 6]: decreased
- ketogenesis [5, 6]: decreased
- plasma glucose concentrations [5, 6]: decreased
- whole-body glucose turnover [5, 6]: decreased
- WAT lipolysis, whole body glucose turnover, or plasma glucose or insulin concentrations ([5]; recently fed rats (6 hr)): no impact
Compound: CC#C[C@]1(O)CC[C@H]2[C@@H]3CCC4=CC(=O)CCC4=C3[C@@H](c3ccc(N(C)C)cc3)C[C@@]21C [mifepristone]

Compound: NC(=O)CC[C@@H]1NC(=O)[C@H](Cc2ccccc2)NC(=O)[C@H](Cc2ccc(O)cc2)NC(=O)[C@@H](N)CSSC[C@@H](C(=O)N2CCC[C@H]2C(=O)N[C@@H](CCCN=C(N)N)C(=O)NCC(N)=O)NC(=O)[C@H](CC(N)=O)NC1=O [vasopressin]
- VPC (effect of glucagon) [1, 7]: recapitulated
- glucose production (effect of glucagon) [1, 7]: recapitulated
- intrahepatic lipolysis (effect of glucagon) ([1]; hepatocytes, vasopressin): recapitulated
- mitochondrial and cytosolic calcium signaling ([2]; isolated WT hepatocytes (not InsP3R-I KO), 100 nM glucagon or 50 nM vasopressin): almost identical increase
